# pKd: −log10 of the molar value. “Also recorded” adds a separate entry of the source. Where a SMILES comes first, the peptide text is derived from it. Bridges are numbered along the chain shown (N, C = ends). Roman numbers before positions name the chains, in order. Where no end group is shown, it is not given here.
# How the values were obtained:
# PD-L1 [1] = biological target: T1, PD-L1 (Homo sapiens, UniProt Q9NZQ7); test: ka (1/Ms)
# From the text: Table printed on a drawing sheet, Figure 2F
# Title: nABP786 binding to PD-L1
# (§1) Head of the field: ka (1/Ms)
# (§2) The patent's description of the figure: FIG. 2A depicts test results of binding affinity of nABP284 to PD-1 measured by surface plasmon resonance (SPR);
# (§3) FIG. 2B depicts test results of binding affinity of nABP386 to PD-1 measured by SPR;
# (§4) FIG. 2C depicts test results of binding affinity of nABP486 to PD-1 measured by SPR;
# (§5) FIG. 2D depicts test results of binding affinity of nABP486 to PD-L1 measured by SPR;
# (§6) FIG. 2E depicts test results of binding affinity of nABP786 to PD-1 measured by SPR;
# (§7) FIG. 2F depicts test results of binding affinity of nABP786 to PD-L1 measured by SPR;
# First copying reader's note: Inset table of SPR kinetic constants printed above the sensorgram; the target is PD-L1.
# Where the first naming reader finds the target: table_title: nABP786 binding to PD-L1
# Target sequence in this assay (Q9NZQ7 19-290 limits assumed): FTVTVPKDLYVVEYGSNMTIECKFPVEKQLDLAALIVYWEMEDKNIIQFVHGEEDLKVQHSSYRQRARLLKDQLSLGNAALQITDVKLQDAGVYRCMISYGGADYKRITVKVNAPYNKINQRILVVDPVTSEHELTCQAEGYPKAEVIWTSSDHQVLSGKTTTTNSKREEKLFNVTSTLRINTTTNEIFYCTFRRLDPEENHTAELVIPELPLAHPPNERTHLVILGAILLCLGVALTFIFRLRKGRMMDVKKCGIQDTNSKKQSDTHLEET
# PD-1 [2] = biological target: T2, PD-1 (Homo sapiens, UniProt Q15116); test: ka (1/Ms)
# From the text: Table printed on a drawing sheet, Figure 2E
# Title: nABP786 binding to PD-1
# as §1, §2, §3, §4, §5, §6, §7
# Target sequence in this assay (Q15116 25-288 limits assumed): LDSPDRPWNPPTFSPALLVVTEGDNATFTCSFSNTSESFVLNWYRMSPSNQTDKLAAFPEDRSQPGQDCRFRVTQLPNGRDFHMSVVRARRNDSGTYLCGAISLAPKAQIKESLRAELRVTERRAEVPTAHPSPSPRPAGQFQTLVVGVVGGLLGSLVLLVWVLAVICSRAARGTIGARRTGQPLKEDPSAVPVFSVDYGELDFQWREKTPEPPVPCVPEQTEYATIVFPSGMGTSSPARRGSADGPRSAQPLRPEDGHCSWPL
# First copying reader's note: Inset table of SPR kinetic constants printed above the sensorgram; the target is PD-1.
# Where the first naming reader finds the target: table_title: nABP786 binding to PD-1
# PD-L1 [3] = biological target: T1, PD-L1; details: background section; read-out: Kd-value of antibody drug targeting PD-L1; cited from earlier work
# Target sequence in this assay (Q9NZQ7 19-290): as the sequence (Q9NZQ7 19-290 limits assumed) above
# PD-1 [4] = biological target: T2, PD-1; details: background section; read-out: Kd-value of antibody drug targeting PD-1; cited from earlier work
# Target sequence in this assay (Q15116 25-288): as the sequence (Q15116 25-288 limits assumed) above
# [5] = test system: peripheral blood derived lymphocytes; test: CCK-8 cytotoxicity assay on PBMCs / iCIKs; type: cell-based, Human; details: CCK-8, 1-64 μM, 24 hours
# Protocol: (§8) Cytotoxicity assay was performed and measured with Cell Counting Kit-8 (CCK-8, Dujindo, Japan). Jurkat cells (each well with 4000 cells), PBMCs (each well with 4000 cells) and Cal27 cells (each well with 2000 cells) were added into a 96-well plate and cultured for 24 hours, respectively. nABP284, nABP386 and nABP486 in a concentration gradient of 1 μM, 2 μM, 3 μM, 4 μM, 8 μM, 16 μM, 32 μM and 64 μM were added into the medium and the cells were cultured for 24 hours in a cell incubator. After that, 10 μl of CCK-8 solution was added to each well and the cells were incubated for 2 hours. VictorX5 Multilabel plate reader (PerkinElmer, Singapore) was used for measuring absorbance of each well at 450 nm. Cell viability (%) was calculated by the following formula:
# (§9) Cell viability (%)=[(Sample A−Background A)/(Control A−Blank A)×100%. • Wherein Sample A denotes the absorbance of the experimental well (including cells, CCK-8 solution, medium and peptide diluent) • Background A denotes the absorbance of the background hole (including CCK-8 solution, medium, and peptide diluent without cells); • Control A denotes the absorbance of the control hole (including cells, CCK-8 solution and medium without peptide diluent); and • Blank A denotes the absorbance of the blank hole (including CCK-8 solution and medium without cells and peptide diluent).
# [6] = test system: Cal27 cells co-cultured with iCIKs; test: iCIKs-mediated tumor killing efficiency on Cal27 cells (LDH release); type: cell-based, Human; details: 10 μM peptide or 2 ug/ml antibody, iCIKs:Cal27 10 to 1, 6 hours
# Protocol: Human peripheral blood and PBS are mixed at a ratio of 1 to 1, and then the mixture was added to the surface of Ficoll solution in an equal volume and the mixture and Ficoll were kept layered. Density gradient centrifugation (400 g, 20 min) was used for separating components of the peripheral blood. 10 ug/ml of Anti-CD3 monoclonal antibody (T210, TAKARA) was coated on cell culture dishes to cover the mixture at 4° C. overnight. The separated PBMCs were added to the coated dishes in which RPMI1640 medium supplemented with 10% of fetal calf serum, 2000 U/ml of IFN-γ, and 10 ng/ml of IL-2 was added and was changed every three days. After a ten-day culture, the stimulated PBMCs were known as improving cytokine-induced killer cells (iCIKs).
# 500 U/ml of IFN-γ was used for stimulating Cal27 cells for 48 hours. The iCIKs were incubated with 10 uM of nABP284, 10 μM of nABP386, 10 μM of nABP486, and 2 ug/ml of PD-1 functional monoclonal antibody (J116, eBioscience|ThermoFisher Science) for 1 hour at 37° C., respectively, and the stimulated CAL27 cells were added to the 96-well plate at 1×10^4 cells per well. […] After these cells were co-cultured for 6 hours, a Cyto Tox Non-Radioactive Cytotoxicity Assay kit was used for detecting the level of lactic dehydrogenase (LDH) in the medium and VictorX5 multilabel plate reader (PerkinElmer, Singapore) was used for measuring absorbance at 490 nm.
# Jurkat T cells = test: CCK-8 cytotoxicity assay on Jurkat T cells; type: cell-based, Human; details: CCK-8, 1-64 μM, 24 hours
# Protocol: as §8, §9
# Cal27 cells = test: CCK-8 cytotoxicity assay on Cal27 cells; type: cell-based, Human; details: CCK-8, 1-64 μM, 24 hours
# Protocol: as §8, §9
molecule,measurement,setting,value
"CC[C@H](C)[C@H](NC(=O)[C@H](CCC(=O)O)NC(=O)[C@H](CCCCN)NC(=O)[C@H](CC(C)C)NC(=O)[C@H](CCCCNC(=O)[C@H](CC(C)C)NC(=O)[C@H](CCCNC(=N)N)NC(=O)[C@H](Cc1c[nH]cn1)NC(=O)[C@H](Cc1c[nH]cn1)NC(=O)[C@H](Cc1c[nH]cn1)NC(=O)[C@@H](N)CO)NC(=O)[C@H](CC(C)C)NC(=O)[C@H](CCCNC(=N)N)NC(=O)[C@H](Cc1c[nH]cn1)NC(=O)[C@H](Cc1c[nH]cn1)NC(=O)[C@H](Cc1c[nH]cn1)NC(=O)[C@@H](N)CO)C(=O)N[C@@H](C)C(=O)N[C@@H](CC(N)=O)C(=O)N[C@@H](CS)C(=O)N[C@@H](CO)C(=O)N1CCC[C@H]1C(=O)N[C@H](C(=O)N[C@@H](CCC(N)=O)C(=O)N[C@@H](Cc1ccccc1)C(=O)N[C@@H](CCCCN)C(=O)N[C@@H](CS)C(=O)O)[C@@H](C)O [nABP786] (HELM PEPTIDE1{S.H.H.H.R.L.K.L.K.E.I.A.N.C.S.P.T.Q.F.K.C}|PEPTIDE2{S.H.H.H.R.L}$PEPTIDE1,PEPTIDE2,7:R3-6:R2$$$V2.0)",ka,PD-L1 [1],29000 M⁻¹ s⁻¹
same,ka,PD-1 [2],77600 M⁻¹ s⁻¹
Atezolizumab,pKd,PD-L1 [3],9.40
Cemiplimab,pKd,PD-1 [4],8.21
Cindilimab,pKd,PD-1 [4],9.60
Durvalumab,pKd,PD-L1 [3],9.18
I: SHHHRLKLKEIANSPTQFWRMVARNTLGNGAKQSLNIEHA / II: SHHHRL (amide I:7-II:C) [nABP486],toxicity on peripheral blood derived lymphocytes,[5],non-toxic and side effects
same,iCIKs-mediated cytotoxicity (killing ability) for Cal27 cells,[6],significantly increased; also recorded: significantly reverse the immune escape of tongue cancer cells; also recorded: superior to functional anti-PD-1 antibody; also recorded: can enhance the tumor killing effect of lymphocytes on tumor cells
same,direct cytotoxicity to Jurkat T cells,Jurkat T cells,no directly cytotoxicity; also recorded: non-toxic and side effects
same,direct cytotoxicity to Cal27 cells,Cal27 cells,no directly cytotoxicity; also recorded: no direct killing ability to Cal27 cells; also recorded: non-toxic and side effects
I: SRLKEIANSPTQFWRMVARNTLGNHAKQSLNIEHA / II: SHHHRL (amide I:27-II:C) [nABP386],toxicity on peripheral blood derived lymphocytes,[5],non-toxic and side effects
same,iCIKs-mediated cytotoxicity (killing ability) for Cal27 cells,[6],can enhance the tumor killing effect of lymphocytes on tumor cells
same,direct cytotoxicity to Jurkat T cells,Jurkat T cells,no directly cytotoxicity; also recorded: non-toxic and side effects
same,direct cytotoxicity to Cal27 cells,Cal27 cells,no directly cytotoxicity; also recorded: non-toxic and side effects
Toripalimab,pKd,PD-1 [4],9.49

# From US20240209043A1, “NON-ANTIBODY BINDING PEPTIDES AND THEIR ANALOGS DUAL-TARGETING TO PD-1 AND PD-L1, AND USES THEREOF” (ORAL SUBSIDIARY SUN YAT-SEN UNIVERSITY HOSPITAL, priority 2021, published 2024)
